Test results from paper PMC6637425 (ChemMedChem, 2019).

Tests used:
BACE1 enzyme = BACE1 enzyme (Homo sapiens, UniProt P56817); test: BACE1 enzyme inhibition, Ki from kinetic data under tight-binding conditions; format: biochemical
BACE2 enzyme = target: T1, BACE2 enzyme (Homo sapiens, UniProt Q9Y5Z0); test: BACE2 enzyme inhibition, Ki from kinetic data under tight-binding conditions; format: biochemical; conditions: Ki (nM) BACE2, Table 3
T1 sequence (Q9Y5Z0 63-518): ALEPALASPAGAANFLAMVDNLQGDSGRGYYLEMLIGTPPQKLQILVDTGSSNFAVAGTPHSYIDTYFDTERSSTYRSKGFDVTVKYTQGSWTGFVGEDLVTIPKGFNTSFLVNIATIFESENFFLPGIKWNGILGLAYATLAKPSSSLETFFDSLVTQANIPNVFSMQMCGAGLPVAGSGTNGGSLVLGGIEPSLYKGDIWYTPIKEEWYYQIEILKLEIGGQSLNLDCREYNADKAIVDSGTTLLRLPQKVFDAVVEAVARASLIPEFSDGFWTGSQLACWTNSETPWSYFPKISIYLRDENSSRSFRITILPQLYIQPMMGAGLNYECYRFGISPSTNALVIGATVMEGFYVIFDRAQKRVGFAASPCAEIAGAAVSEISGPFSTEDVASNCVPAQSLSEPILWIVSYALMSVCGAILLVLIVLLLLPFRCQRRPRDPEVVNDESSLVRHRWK

BACE1 enzyme, sequence (P56817 46-501): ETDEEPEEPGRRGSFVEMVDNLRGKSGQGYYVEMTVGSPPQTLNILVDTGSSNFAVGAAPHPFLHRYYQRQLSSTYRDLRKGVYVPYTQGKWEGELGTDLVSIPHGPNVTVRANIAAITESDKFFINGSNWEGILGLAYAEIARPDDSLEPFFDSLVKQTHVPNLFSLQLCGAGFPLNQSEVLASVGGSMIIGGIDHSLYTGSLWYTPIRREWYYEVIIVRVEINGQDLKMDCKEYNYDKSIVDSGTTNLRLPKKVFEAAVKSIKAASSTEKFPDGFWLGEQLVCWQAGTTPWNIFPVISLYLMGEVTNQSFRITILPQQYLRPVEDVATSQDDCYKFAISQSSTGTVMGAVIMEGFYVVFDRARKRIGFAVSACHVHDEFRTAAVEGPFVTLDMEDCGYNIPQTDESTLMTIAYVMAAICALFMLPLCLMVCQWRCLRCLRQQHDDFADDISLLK

Question: What does the source list for `COc1cccc(CNC[C@@H](O)[C@H](Cc2ccccc2)NC(=O)c2cc(C)cc(C(=O)N(C)Cc3nc(C)co3)c2)c1` [inhibitor 3n, N^1-((2S,3R)-3-Hydroxy-4-((3-methoxybenzyl)amino)-1-phenylbutan-2-yl)-N^3,5-dimethyl-N^3-((4-methyloxazol-2-yl)methyl)isophthalamide]?
Answer: Ki (BACE1 enzyme; Ki (nM) BACE1, Table 3): 25.4 nM; selectivity for BACE1 against BACE2 (BACE1 enzyme; ratio of Ki values): > 75 fold; Ki (BACE2 enzyme): 1920 nM
